From PubChem BioAssay AID330 (DTP/NCI, 2004)
“And” between values parts separate entries of the source, which are not always exact repeats. Equal entries are not always repeated. Inconclusive results and toxic doses are left out.

System: P388 leukemia ip, CD2F1 mice, survival T/C
Experiment: NCI In Vivo Anticancer Drug Screen. Data for tumor model P388 Leukemia (intraperitoneal) in CD2F1 (CDF1) mice
Settings: endpoint: median survival time, higher = longer survival
Method in brief: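 Mice carrying the transplanted tumor received test compound or vehicle. Survival was recorded in each group, and the value is the treated-group measurement divided by that of the vehicle-treated control group.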

[1] = dose: 60.0 mg/kg/injection, schedule: Q01DX005 (ip), vehicle: saline with Tween-80
[2] = dose: 120.0 mg/kg/injection, schedule: Q01DX005 (ip), vehicle: saline with Tween-80
[3] = dose: 240.0 mg/kg/injection, schedule: Q01DX005 (ip), vehicle: saline with Tween-80
[4] = dose: 50.0 mg/kg/injection, schedule: Q01DX005 (ip), vehicle: saline with Tween-80
[5] = dose: 100.0 mg/kg/injection, schedule: Q01DX005 (ip), vehicle: saline with Tween-80
[6] = dose: 200.0 mg/kg/injection, schedule: Q01DX005 (ip), vehicle: saline with Tween-80
[7] = dose: 200.0 mg/kg/injection, schedule: Q01DX009 (ip), vehicle: saline with Tween-80

How did the T/C [1] turn out when `NC1=NN(Cc2csc(-c3ccccc3)n2)C(=O)C1` was run?
The T/C was 103 % of control.

What about the T/C [2] of the same compound?
Its T/C is 95 % of control.

What about the T/C [3] of the same compound?
Its T/C is 103 % of control.

For `CC1SCCCS1`, which T/C (dose: 50.0 mg/kg/injection, schedule: Q01DX009 (ip), vehicle: saline) is on record?
The T/C was 98 % of control.

What about the T/C (dose: 100.0 mg/kg/injection, schedule: Q01DX009 (ip), vehicle: saline) of the same compound?
Its T/C is 98 % of control.

And the T/C (dose: 200.0 mg/kg/injection, schedule: Q01DX009 (ip), vehicle: saline)?
The T/C was 97 % of control.

And the T/C (dose: 400.0 mg/kg/injection, schedule: Q01DX009 (ip), vehicle: saline)?
The T/C was 97 % of control.

How did the T/C (dose: 100.0 mg/kg/injection, schedule: Q04DX002 (ip), vehicle: saline with Tween-80) turn out when `Cc1cc(C)c(N(C)C)c(C)c1` was run?
Its T/C is 109 % of control.

And the T/C (dose: 200.0 mg/kg/injection, schedule: Q04DX002 (ip), vehicle: saline with Tween-80)?
Its T/C is 110 % of control.

For `CCCCCCCCCCCCNc1ncnc2[nH]ncc12`, which T/C [4] is on record?
Its T/C is 102 % of control.

And the T/C [5]?
Its T/C is 98 % of control.

And the T/C [6]?
Its T/C is 98 % of control.

`C1=C[N-]c2c3c(ccc2=C1)=CC=C[N-]3.C1=C[N-]c2c3c(ccc2=C1)=CC=C[N-]3.C1C[N-]C2C(C1)CCC1CC[N-]CC12.[Ni]` was tested. Which T/C (dose: 3.12 mg/kg/injection, schedule: Q01DX005 (ip), vehicle: saline) did it give?
The T/C was 97 % of control.

And the T/C (dose: 6.25 mg/kg/injection, schedule: Q01DX005 (ip), vehicle: saline)?
Its T/C is 96 % of control.

With `CC(=O)OCc1ncccc1OC(C)=O` as the compound, how does the T/C (dose: 25.0 mg/kg/injection, schedule: Q01DX009 (ip), vehicle: saline with Tween-80) read?
The T/C was 104 % of control.

And the T/C (dose: 50.0 mg/kg/injection, schedule: Q01DX009 (ip), vehicle: saline with Tween-80)?
The T/C was 111 % of control.

What about the T/C (dose: 100.0 mg/kg/injection, schedule: Q01DX009 (ip), vehicle: saline with Tween-80) of the same compound?
Its T/C is 104 % of control.

And the T/C [7]?
The T/C was 109 % of control.

Which results are given for `CC(C)(C)C(=O)CC(=O)C(F)(F)C(F)(F)C(F)(F)F.CC(C)(C)C(=O)CC(=O)C(F)(F)C(F)(F)C(F)(F)F.CC(C)(C)C(=O)CC(=O)C(F)(F)C(F)(F)C(F)(F)F.[Eu]`?
T/C (dose: 60.0 mg/kg/injection, schedule: Q01DX005 (ip), vehicle: Klucel + Tween-80): 99 % of control; T/C (dose: 120.0 mg/kg/injection, schedule: Q01DX005 (ip), vehicle: Klucel + Tween-80): 98 % of control; T/C (dose: 240.0 mg/kg/injection, schedule: Q01DX005 (ip), vehicle: Klucel + Tween-80): 98 % of control

`CCn1c2ccccc2c2cc(N=Nc3ccc(N)nc3N)ccc21` was tested. Which T/C [4] did it give?
The T/C was 94 % of control.

What about the T/C [5] of the same compound?
The T/C was 94 % of control.

And the T/C [6]?
The T/C was 96 % of control.

With `C(=N\Nc1nn[nH]n1)/c1ccccc1` as the compound, how does the T/C (dose: 50.0 mg/kg/injection, schedule: Q01DX009 (ip), vehicle: suspension in saline) read?
The T/C was 98 % of control.

And the T/C (dose: 100.0 mg/kg/injection, schedule: Q01DX009 (ip), vehicle: suspension in saline)?
Its T/C is 97 % of control.

What about the T/C (dose: 200.0 mg/kg/injection, schedule: Q01DX009 (ip), vehicle: suspension in saline) of the same compound?
The T/C was 104 % of control.

Which T/C [4] does the source give for `O=C1OC2C(I)C3CC2C1C3c1ccccc1` (stereo not given) here?
The T/C was 105 % of control.

And the T/C [5]?
The T/C was 103 % of control.

And the T/C [6]?
Its T/C is 105 % of control.

Which T/C [1] does the source give for `OCCN1CCN(Cc2cc(Cl)cc(CN3CCN(CCO)CC3)c2O)CC1` here?
Its T/C is 100 % of control.

And the T/C [2]?
The T/C was 97 % of control.

What about the T/C [3] of the same compound?
The T/C was 100 % of control.

For `O=C(O)CCN(Cc1ccccc1)Cc1ccccc1`, which T/C (dose: 100.0 mg/kg/injection, schedule: Q04DX003 (ip), vehicle: saline) is on record?
The T/C was 100 % of control.

What about the T/C (dose: 200.0 mg/kg/injection, schedule: Q04DX003 (ip), vehicle: saline) of the same compound?
Its T/C is 100 % of control.

What about the T/C (dose: 400.0 mg/kg/injection, schedule: Q04DX003 (ip), vehicle: saline) of the same compound?
The T/C was 109 % of control.

`CCOCC(=O)NC1Cc2cc(OC)c(OC)cc2C1O` (stereo not given) was tested. Which T/C [1] did it give?
The T/C was 100 % of control.

And the T/C [2]?
Its T/C is 101 % of control.

And the T/C [3]?
Its T/C is 100 % of control.

Which results are given for `COc1cccc2c1C(=N)c1c(O)c3c(c(O)c1C2=O)C[C@@](O)(C(C)=O)C[C@@H]3OC1CC(N)C(O)C(C)O1` (stereo not given in full)?
T/C (dose: 0.5 mg/kg/injection, schedule: Q01DX009 (ip), vehicle: water): 153 % of control; T/C (dose: 0.75 mg/kg/injection, schedule: Q04DX003 (ip), vehicle: water): 112 % of control; T/C (dose: 1.0 mg/kg/injection, schedule: Q01DX009 (ip), vehicle: saline): 158 % of control; T/C (dose: 1.0 mg/kg/injection, schedule: Q01DX009 (ip), vehicle: water): 153 % of control and 175 % of control; T/C (dose: 1.5 mg/kg/injection, schedule: Q04DX003 (ip), vehicle: water): 118 % of control; T/C (dose: 2.0 mg/kg/injection, schedule: Q01DX009 (ip), vehicle: saline): 153 % of control; T/C (dose: 2.0 mg/kg/injection, schedule: Q01DX009 (ip), vehicle: water): 155 % of control and 186 % of control; T/C (dose: 3.0 mg/kg/injection, schedule: Q04DX003 (ip), vehicle: water): 124 % of control; T/C (dose: 3.24 mg/kg/injection, schedule: Q04DX003 (ip), vehicle: water): 150 % of control; T/C (dose: 4.0 mg/kg/injection, schedule: Q01DX009 (ip), vehicle: water): 150 % of control and 157 % of control; T/C (dose: 5.4 mg/kg/injection, schedule: Q04DX003 (ip), vehicle: water): 161 % of control; T/C (dose: 6.0 mg/kg/injection, schedule: Q04DX003 (ip), vehicle: water): 123 % of control and 124 % of control; T/C (dose: 8.0 mg/kg/injection, schedule: Q01DX009 (ip), vehicle: saline): 91 % of control; T/C (dose: 8.0 mg/kg/injection, schedule: Q01DX009 (ip), vehicle: water): 88 % of control and 94 % of control; T/C (dose: 9.0 mg/kg/injection, schedule: Q04DX003 (ip), vehicle: water): 157 % of control; T/C (dose: 12.0 mg/kg/injection, schedule: Q04DX003 (ip), vehicle: water): 102 % of control; T/C (dose: 15.0 mg/kg/injection, schedule: Q04DX003 (ip), vehicle: water): 98 % of control; T/C (dose: 24.0 mg/kg/injection, schedule: Q04DX003 (ip), vehicle: water): 123 % of control; T/C (dose: 48.0 mg/kg/injection, schedule: Q04DX003 (ip), vehicle: water): 116 % of control; T/C (dose: 96.0 mg/kg/injection, schedule: Q04DX003 (ip), vehicle: water): 98 % of control

Which T/C (dose: 100.0 mg/kg/injection, schedule: Q04DX003 (ip), vehicle: saline with Tween-80) does the source give for `CCN(CCN1C(=O)COCC1=O)c1ccccc1` here?
Its T/C is 105 % of control.

What about the T/C (dose: 200.0 mg/kg/injection, schedule: Q04DX003 (ip), vehicle: saline with Tween-80) of the same compound?
The T/C was 104 % of control.

What about the T/C (dose: 400.0 mg/kg/injection, schedule: Q04DX003 (ip), vehicle: saline with Tween-80) of the same compound?
The T/C was 96 % of control.

Which T/C (dose: 6.25 mg/kg/injection, schedule: Q01DX005 (ip), vehicle: saline + Tween-80 + alcohol) does the source give for `COc1cccc2c1C(=O)C1=C(C2=O)c2c(O)cc(CO)cc2C(O)C1O` (stereo not given) here?
The T/C was 113 % of control.

And the T/C (dose: 12.5 mg/kg/injection, schedule: Q01DX005 (ip), vehicle: saline + Tween-80 + alcohol)?
The T/C was 113 % of control.

What about the T/C (dose: 25.0 mg/kg/injection, schedule: Q01DX005 (ip), vehicle: saline + Tween-80 + alcohol) of the same compound?
The T/C was 120 % of control.

Which results are given for `Cc1ccn2c(=O)c(Br)c(C)nc2c1`?
T/C (dose: 100.0 mg/kg/injection, schedule: Q01DX001 (ip), vehicle: saline with Tween-80): 92 % of control; T/C (dose: 200.0 mg/kg/injection, schedule: Q01DX001 (ip), vehicle: saline with Tween-80): 94 % of control; T/C (dose: 400.0 mg/kg/injection, schedule: Q01DX001 (ip), vehicle: saline with Tween-80): 97 % of control

With `COc1ccc(/C=C2/SC(=S)N(Cc3ccco3)C2=O)cc1` as the compound, how does the T/C (dose: 6.25 mg/kg/injection, schedule: Q01DX009 (ip), vehicle: saline with Tween-80) read?
Its T/C is 100 % of control.

What about the T/C (dose: 12.5 mg/kg/injection, schedule: Q01DX009 (ip), vehicle: saline with Tween-80) of the same compound?
Its T/C is 91 % of control.

What about the T/C [7] of the same compound?
The T/C was 86 % of control.

Which T/C (dose: 50.0 mg/kg/injection, schedule: Q01DX005 (ip), vehicle: saline) does the source give for `Cn1c[n+](C2OC(CO)C(O)C2O)c2nc(N)[nH]c(=O)c21` (stereo not given) here?
The T/C was 119 % of control.

What about the T/C (dose: 100.0 mg/kg/injection, schedule: Q01DX005 (ip), vehicle: saline) of the same compound?
Its T/C is 105 % of control.

What about the T/C (dose: 200.0 mg/kg/injection, schedule: Q01DX005 (ip), vehicle: saline) of the same compound?
The T/C was 115 % of control.

Which T/C (dose: 50.0 mg/kg/injection, schedule: Q01DX009 (ip), vehicle: Klucel (hydroxypropylcellulose) (HPC)) does the source give for `CCn1c2ccccc2c2cc(N)c(N=Nc3ccc([N+](=O)[O-])cc3)cc21` here?
Its T/C is 105 % of control.

What about the T/C (dose: 100.0 mg/kg/injection, schedule: Q01DX009 (ip), vehicle: Klucel (hydroxypropylcellulose) (HPC)) of the same compound?
Its T/C is 104 % of control.

And the T/C (dose: 200.0 mg/kg/injection, schedule: Q01DX009 (ip), vehicle: Klucel (hydroxypropylcellulose) (HPC))?
Its T/C is 105 % of control.

What does the source list for `O=C(NC1COB(c2ccc(Br)cc2)OC1c1ccc([N+](=O)[O-])cc1)C(Cl)Cl` (stereo not given)?
T/C (dose: 60.0 mg/kg/injection, schedule: Q01DX005 (ip), vehicle: Klucel (hydroxypropylcellulose) (HPC)): 102 % of control; T/C (dose: 120.0 mg/kg/injection, schedule: Q01DX005 (ip), vehicle: Klucel (hydroxypropylcellulose) (HPC)): 102 % of control; T/C (dose: 240.0 mg/kg/injection, schedule: Q01DX005 (ip), vehicle: Klucel (hydroxypropylcellulose) (HPC)): 103 % of control
